In patent US12358915B2, “METTL3 inhibitory compounds” (STORM THERAPEUTICS LTD., priority 2019, dated 2025):
Where two headings read alike, the source gives them in different places.

Biological target: T1, METTL3/14 (Homo sapiens, UniProt Q86U44)
T1 construct: The enzyme used was full-length his-tagged METTL3; His; made in house
Assay: METTL3/14 methyltransferase assay (METTL3_14 RFMS, RapidFire mass spectrometry);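 also: recombinant His-tagged METTL3 with FLAG-tagged METTL14 from baculovirus, SAH product quantified by mass spectrometry against isotope-labelled internal standards, 60 min at room temperature, scaled between no-RNA and DMSO-only wells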
Type: biochemical

[1] = 5 nM METTL3/14, 0.2 μM RNA substrate, 0.5 μM SAM, lower limit of the assay IC50=5 nM, Compounds 63-265, read-out: METTL3_14 RFMS IC50
[2] = 5 nM METTL3/14, 0.2 μM RNA substrate, 0.5 μM SAM, lower limit of the assay IC50=5 nM, Compounds 266-351, read-out: METTL3_14 RFMS IC50
[3] = 5 nM METTL3/14, 0.2 μM RNA substrate, 0.5 μM SAM, lower limit of the assay IC50=5 nM, Compounds 1-62, read-out: METTL3_14 RFMS IC50

T1 sequence (Q86U44 whole entry): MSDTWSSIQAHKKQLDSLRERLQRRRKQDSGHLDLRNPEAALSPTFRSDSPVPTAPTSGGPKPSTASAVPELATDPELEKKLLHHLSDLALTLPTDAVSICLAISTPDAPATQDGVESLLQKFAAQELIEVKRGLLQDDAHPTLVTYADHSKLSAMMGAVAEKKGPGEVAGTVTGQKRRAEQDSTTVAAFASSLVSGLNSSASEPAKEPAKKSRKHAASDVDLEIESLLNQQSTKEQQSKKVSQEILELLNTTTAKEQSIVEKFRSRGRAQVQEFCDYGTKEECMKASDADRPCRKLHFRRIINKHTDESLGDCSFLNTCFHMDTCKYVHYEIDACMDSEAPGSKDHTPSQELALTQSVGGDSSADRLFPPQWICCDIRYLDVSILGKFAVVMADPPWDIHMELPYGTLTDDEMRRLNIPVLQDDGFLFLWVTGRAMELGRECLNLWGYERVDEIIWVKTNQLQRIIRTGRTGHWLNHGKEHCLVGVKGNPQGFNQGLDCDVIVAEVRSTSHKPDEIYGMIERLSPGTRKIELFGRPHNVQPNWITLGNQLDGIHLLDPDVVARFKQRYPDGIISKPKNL
T1 sequence (Q9HCE5 whole entry partner): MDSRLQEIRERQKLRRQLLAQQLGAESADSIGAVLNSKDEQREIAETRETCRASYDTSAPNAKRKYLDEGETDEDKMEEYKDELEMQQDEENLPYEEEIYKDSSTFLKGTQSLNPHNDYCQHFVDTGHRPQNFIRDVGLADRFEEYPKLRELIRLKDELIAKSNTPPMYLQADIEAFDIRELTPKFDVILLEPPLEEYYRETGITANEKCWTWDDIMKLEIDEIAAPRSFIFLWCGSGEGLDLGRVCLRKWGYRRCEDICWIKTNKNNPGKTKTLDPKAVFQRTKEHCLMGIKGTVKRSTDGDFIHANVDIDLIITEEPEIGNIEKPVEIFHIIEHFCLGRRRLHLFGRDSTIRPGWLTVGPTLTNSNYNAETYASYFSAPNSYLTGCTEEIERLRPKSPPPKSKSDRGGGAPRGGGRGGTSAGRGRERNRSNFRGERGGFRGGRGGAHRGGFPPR

Row | SMILES | IC50 [1] [nM] | other results
1 | O=C(NCc1cn2cc(CNCC3CC4(CCC4)C3)ccc2n1)c1cc(=O)n2ccccc2n1 [Compound 277, 4-oxo-N-[[6-[(spiro[3.3]heptan-2-ylmethylamino)methyl]imidazo[1,2-a]pyridin-2-yl]methyl]pyrido[1,2-a]pyrimidine-2-carboxamide] |  | IC50 [2]: 76.3 nM
2 | CC(C)(C#N)CNCc1ccc2nc(CNC(=O)c3cc(=O)n4ccccc4n3)cn2c1 [Compound 275, N-[[6-[[(2-cyano-2-methyl-propyl)amino]methyl]imidazo[1,2-a]pyridin-2-yl]methyl]-4-oxo-pyrido[1,2-a]pyrimidine-2-carboxamide] |  | IC50 [2]: 1240 nM
3 | CC(C)(C)CNCc1ccc2nc(Cn3cc(-c4cncc5[nH]ncc45)nn3)cn2c1 [Example 256, (2,2-dimethylpropyl)({2-[(4-{1H-pyrazolo[3,4-c]pyridin-4-yl}-1H-1,2,3-triazol-1-yl)methyl]imidazo[1,2-a]pyridin-6-yl}methyl)amine] | 246 | 
4 | O=C(NCc1cn2cc(CN3CCC(C(F)(F)F)CC3)ccc2n1)c1cc(=O)n2ccccc2n1 [Compound 138, 4-oxo-N-[(6-{[4-(trifluoromethyl)piperidin-1-yl]methyl}imidazo [1,2-a]pyridin-2-yl)methyl]-4H-pyrido[1,2-a] pyrimidine-2-carboxamide] | 31.4 | 
5 | O=C(NCc1cn2cc(CNCC3CCCCC3)ccc2n1)c1cc(Cl)cc2[nH]ncc12 [Compound 190, 6-chloro-N-[(6-{[(cyclohexylmethyl)amino]methyl}imidazo[1,2-a]pyridin-2-yl)methyl]-1H-indazole-4-carboxamide] | 56.1 | 
6 | CCC(O)CNCc1ccc2nc(CNC(=O)c3cc(=O)n4ccccc4n3)cn2c1 (centres unmarked) [Compound 289, N-[[6-[(2-hydroxputylamino)methyl]imidazo[1,2-a]pyridin-2-yl]methyl]-4-oxo-pyrido[1,2-a]pyrimidine-2-carboxamide] |  | IC50 [2]: 103 nM
7 | O=C(NCc1cn2cc(CNCCC3CCCCO3)ccc2n1)c1cc(=O)n2ccccc2n1 (centres unmarked) [Compound 154, N-{[6-({[2-(oxan-2-yl)ethyl]amino}methyl)imidazo [1,2-a]pyridin-2-yl]methyl}-4-oxo-4H-pyrido[1,2-a] pyrimidine-2-carboxamide] | 1180 | 
8 | O=C(NCc1cn2cc(CNCC3CCCNC3)ccc2n1)c1cc(=O)n2ccccc2n1 (centres unmarked) [Compound 239, 4-oxo-N-{[6-({[(piperidin-3-yl)methyl]amino}methyl)imidazo[1,2-a]pyridin-2-yl]methyl}-4H-pyrido[1,2-a]pyrimidine-2-carboxamide] | 513 | 
9 | O=C(NCc1cn2cc(NCCc3ccccc3)ccc2n1)c1cc(=O)n2ccccc2n1 [Compound 191, 4-oxo-N-({6-[(2-phenylethyl)amino]imidazo[1,2-a]pyridin-2-yl}methyl)-4H-pyrido[1,2-a]pyrimidine-2-carboxamide] |  | IC50 (read-out: METTL3_14 RFMS IC50): 4790 nM
10 | O=C(NCc1cn2ccccc2n1)c1cc(=O)n2ccccc2n1 [Compound 26] |  | IC50 [3]: 2060 nM
11 | O=C(NCc1cn2cc(NCc3cccnc3)ccc2n1)c1cccc2[nH]ncc12 [Compound 32, N-[(6-{[(pyridin-3-yl)methyl]amino}imidazo[1,2-a]pyridin-2-yl)methyl]-1H-indazole-4-carboxamide] |  | IC50 [3]: 7340 nM
12 | O=C(NCc1cn2cc(CNC34CC(C3)C4)ccc2n1)c1cc(=O)n2ccccc2n1 [Compound 116, N-({6-[({bicyclo[1.1.1]pentan-1-yl}amino)methyl]imidazo[1,2-a]pyridin-2-yl}methyl)-4-oxo-4H-pyrido[1,2-a] pyrimidine-2-carboxamide] |  | IC50 (read-out: METTL3_14 RFMS IC50): 280 nM
13 | O=C(NCc1cn2cc(CNCCCc3ccccc3)ccc2n1)c1cc(=O)n2ccccc2n1 [Compound 55, 4-oxo-N-[(6-{[(3-phenylpropyl)amino]methyl}imidazo[1,2-a]pyridin-2-yl)methyl]-4H-pyrido[1,2-a]pyrimidine-2-carboxamide] |  | IC50 [3]: 87 nM; IC50 (read-out: IC50): 66 nM
14 | Cc1ccc2nc(CNC(=O)c3cc(=O)n4cc(Cl)ccc4n3)cn2c1 [Compound 21, 7-chloro-N-({6-methylimidazo[1,2-a]pyridin-2-yl}methyl)-4-oxo-4H-pyrido[1,2-a]pyrimidine-2-carboxamide] |  | IC50 [3]: 3060 nM
15 | O=C(NCc1cn2cc(-c3ccn[nH]3)ccc2n1)c1cccc2[nH]ncc12 [Compound 35, N-{[6-(1H-pyrazol-5-yl)imidazo[1,2-a]pyridin-2-yl]methyl}-1H-indazole-4-carboxamide] |  | IC50 [3]: 15800 nM
16 | O=C(NCc1cn2cc(Cl)ccc2n1)c1cccc2[nH]ncc12 [Compound 4, N-({6-chloroimidazo[1,2-a]pyridin-2-yl}methyl)-1H-indazole-4-carboxamide] |  | IC50 [3]: 6070 nM
17 | Cc1ccc2nc(C(CO)NC(=O)c3cccc4[nH]ncc34)cn2c1 (centres unmarked) [Compound 30, N-(2-hydroxy-1-{6-methylimidazo[1,2-a]pyridin-2-yl}ethyl)-1H-indazole-4-carboxamide] |  | IC50 [3]: 8520 nM
18 | CC1(C)CCN(Cc2ccc3nc(Cn4cc(-c5cc(Br)cc6[nH]ncc56)nn4)cn3c2)CC1 [Example 227, 6-bromo-4-[1-({6-[(4,4-dimethylpiperidin-1-yl)methyl]imidazo[1,2-a]pyridin-2-yl}methyl)-1H-1,2,3-triazol-4-yl]-1H-indazole] | 7.9 | 
19 | O=C(NCc1cn2cc(C(Cc3ccccc3)N(CC3CCC3)CC3CCC3)ccc2n1)c1cc(=O)n2ccccc2n1 (centres unmarked) [Example 314] |  | IC50 (read-out: METTL3_14 RFMS IC50): 7110 nM
20 | CC(C)(C)C(=O)N1CCN(Cc2ccc3nc(CNC(=O)c4cc(=O)n5ccccc5n4)cn3c2)CC1 [Compound 166, N-[(6-{[4-(2,2-dimethylpropanoyl)piperazin-1-yl]methyl}imidazo[1,2-a]pyridin-2-yl)methyl]-4-oxo-4H-pyrido [1,2-a]pyrimidine-2-carboxamide] | 10500 | 
21 | O=C(NCc1cn2cc(CNCC(F)(F)F)ccc2n1)c1cc(=O)n2ccccc2n1 [Compound 51, 4-oxo-N-[(6-{[(2,2,2-trifluoroethyl)amino]methyl}imidazo[1,2-a]pyridin-2-yl)methyl]-4H-pyrido[1,2-a]pyrimidine-2-carboxamide] |  | IC50 [3]: 1220 nM
22 | O=C(NCc1cn2cc(CN3CC4CCC3CC4)ccc2n1)c1cc(=O)n2ccccc2n1 [Compound 351, N-{[6-({2-azabicyclo[2.2.2]octan-2-yl}methyl)imidazo[1,2-a]pyridin-2-yl]methyl}-4-oxo-4H-pyrido[1,2-a]pyrimidine-2-carboxamide] |  | IC50 [2]: 24.1 nM
23 | Cc1ccc2nc(Cn3cc(-c4cccc5[nH]ncc45)nn3)cn2c1 [Compound 69, 4-[1-({6-methylimidazo[1,2-a]pyridin-2-yl}methyl)-1H-1,2,3-triazol-4-yl]-1H-indazole] | 1340 | 

More lines, main results first:

Row | IC50 [1] [nM] | SMILES | other results
24 | 25.1 | CC1(NCc2ccc3nc(CNC(=O)c4cc(=O)n5ccccc5n4)cn3c2)CCCCC1 [Compound 146, N-[(6-{[(1-methylcyclohexyl)amino]methyl}imidazo[1,2-a]pyridin-2-yl)methyl]-4-oxo-4H-pyrido[1,2-a]pyrimidine-2-carboxamide] | 
25 | 5090 | O=C(NCc1ccccc1)c1ccc2nc(CNC(=O)c3cc(=O)n4ccccc4n3)cn2c1 [Compound 68, N-benzyl-2-[({4-oxo-4H-pyrido[1,2-a]pyrimidin-2-yl}formamido)methyl]imidazo [1,2-a]pyridine-6-carboxamide] | 
26 | 83.7 | O=C(NCc1cn2cc(CNC[C@@H]3CCCO3)ccc2n1)c1cc(=O)n2ccccc2n1 [Compound 117, 4-oxo-N-({6-[({[(2S)-oxolan-2-yl]methyl}amino)methyl]imidazo[1,2-a]pyridin-2-yl}methyl)-4H-pyrido[1,2-a] pyrimidine-2-carboxamide] | 
27 | 8370 | CC(C)(C)CN1CCOCC1c1ccc2nc(CNC(=O)c3cc(=O)n4ccccc4n3)cn2c1 (centres unmarked) [Example 232, N-({6-[4-(2,2-dimethylpropyl)morpholin-3-yl]imidazo[1,2-a]pyridin-2-yl}methyl)-4-oxo-4H-pyrido[1,2-a]pyrimidine-2-carboxamide] | 
28 | 16.4 | CC(C)(C)CNCc1ccc2nc(CNC(=O)c3cc(=O)n4ccccc4n3)cn2c1 [Compound 113, N-[(6-{[(2,2-dimethylpropyl)amino]methyl}imidazo[1,2-a]pyridin-2-yl)methyl]-4-oxo-4H-pyrido[1,2-a] pyrimidine-2-carboxamide] | 
29 | 32.6 | CC1CCCN(Cc2ccc3nc(CNC(=O)c4cc(=O)n5ccccc5n4)cn3c2)C1 (centres unmarked) [Compound 139, N-({6-[(3-methylpiperidin-1-yl)methyl]imidazo[1,2-a]pyridin-2-yl}methyl)-4-oxo-4H-pyrido[1,2-a]pyrimidine-2-carboxamide] | 
30 | 18.7 | O=C(NCc1cn2cc(CNCC3CC34CC4)ccc2n1)c1cc(=O)n2ccccc2n1 (centres unmarked) [Compound 140] | 
31 | 350 | O=C(NCc1cn2cc(CNC3CC3)ccc2n1)c1cc(=O)n2ccccc2n1 [Compound 109, N-({6-[(cyclopropyl-amino)methyl]imidazo[1,2-a]pyridin-2-yl}methyl)-4-oxo-4H-pyrido[1,2-a] pyrimidine-2-carboxamide] | 
32 | 136 | CC1(C)CCC(CNCc2ccc3nc(CNC(=O)c4cc(=O)n5ccccc5n4)cn3c2)O1 (centres unmarked) [Compound 143, N-{[6-({[(5,5-dimethyloxolan-2-yl)methyl]amino}methyl)imidazo[1,2-a]pyridin-2-yl]methyl}-4-oxo-4H-pyrido[1,2-a] pyrimidine-2-carboxamide] | 
33 | 29.9 | CC1(C)CCOC1CNCc1ccc2nc(CNC(=O)c3cc(=O)n4ccccc4n3)cn2c1 (centres unmarked) [Compound 150, N-{[6-({[(3,3-dimethyloxolan-2-yl)methyl]amino}methyl)imidazo[1,2-a]pyridin-2-yl]methyl}-4-oxo-4H-pyrido[1,2-a] pyrimidine-2-carboxamide] | 
34 | 305 | CC1(C)CCCCN1Cc1ccc2nc(CNC(=O)c3cc(=O)n4ccccc4n3)cn2c1 [Compound 194, N-({6-[(2,2-dimethylpiperidin-1-yl)methyl]imidazo[1,2-a]pyridin-2-yl}methyl)-4-oxo-4H-pyrido[1,2-a]pyrimidine-2-carboxamide] | 
